# Reference: patent US20180044428A1, “COMPOSITIONS AND METHODS FOR ENHANCING THE EFFICACY OF CANCER THERAPY” (PROVIDENCE HEALTH & SERVICES-OREGON, priority 2015, published 2018)
# How the values were obtained:
# Type in all cases: in vivo, C57BL/6 mice
# [1] = tested on: peripheral blood immune cells; test: Quantitative flow cytometry of peripheral blood after immunochemotherapy
# Protocol: For analysis of tumor-infiltrating cells, the tumor was dissected into approximately 2 mm fragments followed by agitation in lmg/mL collagenase (Invitrogen), 100μg/mL hyaluronidase (Sigma, St Louis, Mo.), and 20 mg/mL DNase (Sigma) in PBS for 1 hour at room temperature. The digest was filtered through 100 μm nylon mesh to remove macroscopic debris. For flow cytometry analysis of infiltrating cells, cell suspensions were washed and stained with directly conjugated fluorescent antibodies. For analysis of lymph nodes, lymph nodes were crushed, washed and surface stained, then cells were washed and fixed using a T regulatory cell staining kit (EBioscience) and stained for transcription factors. To measure cytokine responses, lymph node cells were plated to wells pre-coated with 1 μg/ml anti-CD3 for 4 hours in the presence of Golgiplug (BD biosciences). Cells were then surface stained, washed and fixed using a T regulatory cell staining kit (EBioscience) before intracellular cytokine staining. For analysis of cell numbers in blood, whole blood was harvested into ethylenediaminetetraacetic acid (EDTA) tubes from live mice via the saphenous vein, and 5-25 μl of fresh blood was stained directly with fluorescent antibody cocktails (see, Crittenden et al., PLoS One, 2013. 8(7): e69527). A known number of AccuCheck fluorescent beads (Invitrogen) were added to each sample, then red blood cells were lysed with Cal-Lyse whole blood lysing solution (Invitrogen), and samples analyzed on a BD LSRII flow cytometer. The absolute number of cells in the sample was determined based on comparing cellular events to bead events (cells/μl).
# [2] = tested on: F4/80+ macrophages; test: Immunohistology for F4/80+ macrophages in Panc02 tumors; settings: gemcitabine, tumors harvested after one week of treatment
# Protocol: For immunohistology, tumors were fixed overnight in Z7 zinc based fixative (Lykidis et al., 2007, Nucleic acids research; 35:e85). Tissue was then dehydrated through graded alcohol to xylene, incubated in molten paraffin, and then buried in paraffin. Sections (5 μm) were cut and mounted for analysis. Tissue sections were boiled in ethylenediaminetetraacetic acid (EDTA) buffer as appropriate for antigen retrieval. Primary antibody binding was visualized with AlexaFluor 488 conjugated secondary antibodies (Molecular Probes, Eugene, Oreg.) and mounted with DAPI (Invitrogen) to stain nuclear material. Images were acquired using: a Nikon TE2000S epifluorescence microscope, Nikon DsFi1 digital camera and Nikon NIS-Elements imaging software. Multiple images were taken at high resolution across the tumor and digitally merged to make a single margin-to-margin overview of the tumor.
# [3] = tested on: Panc02 tumors; test: Panc02 pancreatic adenocarcinoma model, immunochemotherapy (tumor area, survival); settings: gemcitabine 100 mg/kg i.p. twice weekly alone
# Protocol: The Panc02 murine pancreatic adenocarcinoma cell line (Priebe et al., 1992, Cancer Chemother Pharmacol; 29:485-9. C57BL/6) was kindly provided by Dr. Woo (Mount Sinai School of Medicine, N.Y.). 6-8 week old C57BL/6 mice were obtained from Charles River Laboratories (Wilmington, Mass.) for use in these experiments. All animal protocols were approved by the EACRI IACUC (Animal Welfare Assurance No. A3913-01).
# Mice bearing 10-14 day old tumors were treated with anti-OX40 (OX86, 250 μg intraperitoneally, BioXcell, West Lebanon, N.H.), anti-CTLA4 (9D9, 250 μg intraperitoneally, BioXcell) or the combination. Chemotherapy consisted of 100 mg/kg Gemcitabine (Eli Lilly and Co., Indianapolis, Ind.) intraperitoneally twice per week for 2 or 3 weeks. Anti-interleukin-4 (Anti-IL-4, 11B11, 100 μg intraperitoneally, BioXcell) was delivered intraperitoneally twice per week for 3 weeks.
# Data were analyzed and graphed using Prism (GraphPad Software, La Jolla, Calif.). Individual data sets were compared using Student's T-test. Analysis across multiple groups was performed using ANOVA with individual groups assessed using Tukey's comparison. Kaplan Meier survival curves were compared using a log-rank test.
# [4] = following one cycle of chemoimmunotherapy
smiles,measurement,setting,value
Nc1ccn([C@@H]2O[C@H](CO)[C@@H](O)C2(F)F)c(=O)n1 [gemcitabine],T cell populations in peripheral blood,[1]; following chemotherapy,not decreased
same,CD11b+Gr1hi neutrophils in the peripheral blood,[1]; [4],significantly decreased
same,CD11b+Ly6C+Ly6Glo immature myeloid cells in the peripheral blood,[1]; [4],significantly decreased
same,macrophage infiltration throughout the tumor,[2],increased
same,survival,[3],significantly extended survival
same,tumor growth,[3],transient tumor delay
